Measured values reported in patent US9212196B2, “Hypophosphorous acid derivatives having antihyperalgic activity and biological applications thereof” (UNIVERSITE PARIS DESCARTES, priority 2011, dated 2015).

How the values were obtained:
[1] = tested on: carrageenan inflammatory pain model; assay: Paw pressure test in carrageenan inflammatory pain model in rats; type: in vivo, rat
Protocol: After the induction period of the neuropathy or inflammation, various amounts of derivative 2 dissolved in serum have been injected in rats, (from 0.5 to 15 μg/rat, i.t. from 1 to 30 mg/kg, i.p.) on time-course of vocalization threshold to paw pressure. The results obtained on healthy animals are given on FIG. 1. They are expressed by the time course curves of means+/−SEM of vocalization threshold in grams (n=6-8 rats per group) (A) or by the area under the curve (B). Morphine (10 μg/rat, i.t.) is used as a positive control. […] FIG. 2 illustrates the effect of intrathecal administration of derivative 2 on the vocalization threshold to paw pressure in the carrageenan inflammatory pain model (effect of derivative 2 (0.5, 1, 5, 10 μg/rat, i.t.) on time-course of vocalization threshold to paw pressure). Morphine (10 μg/rat, i.t.) is used as a positive control. […] Nociceptive thresholds, expressed in grams (g), were measured with a Ugo Basile analgesimeter (Apelex, tip diameter of the probe: 1 mm, weight: 30 g) by applying an increasing pressure to the right hind paw of rats until a squeak (vocalization threshold) was obtained (cut-off was 750 g except carrageenan treated animals for which the cut-off was 500 g). The treatments were done after the measurement of two consecutive stable vocalization threshold values and their effects were assessed 15, 30, 45, 60, 90, and 120 min after. […]

healthy rats = assay: Paw pressure test in healthy rats; type: in vivo, rat; details: i.t., FIG. 1
Protocol: After the induction period of the neuropathy or inflammation, various amounts of derivative 2 dissolved in serum have been injected in rats, (from 0.5 to 15 μg/rat, i.t. from 1 to 30 mg/kg, i.p.) on time-course of vocalization threshold to paw pressure. The results obtained on healthy animals are given on FIG. 1. They are expressed by the time course curves of means+/−SEM of vocalization threshold in grams (n=6-8 rats per group) (A) or by the area under the curve (B). Morphine (10 μg/rat, i.t.) is used as a positive control.
The animals were submitted to the paw pressure test previously described by Randall and Selitto (1957). Nociceptive thresholds, expressed in grams (g), were measured with a Ugo Basile analgesimeter (Apelex, tip diameter of the probe: 1 mm, weight: 30 g) by applying an increasing pressure to the right hind paw of rats until a squeak (vocalization threshold) was obtained (cut-off was 750 g except carrageenan treated animals for which the cut-off was 500 g). The treatments were done after the measurement of two consecutive stable vocalization threshold values and their effects were assessed 15, 30, 45, 60, 90, and 120 min after.
Intrathecal injections were performed, under isoflurane anesthesia (4% induction, 2% maintenance), as previously described (Mestre et al., 1994). […]

mGlu4 = mGlu4 (Homo sapiens (Human), UniProt Q14833); assay: Agonist activity on mGlu4 in transfected HEK293 cells, intracellular calcium release (Fluo4-AM); type: cell-based; details: transfected cells, calcium release; read-out: mGlu4 EC50 μM (n)
Sequence of mGlu4 (Q14833 33-912): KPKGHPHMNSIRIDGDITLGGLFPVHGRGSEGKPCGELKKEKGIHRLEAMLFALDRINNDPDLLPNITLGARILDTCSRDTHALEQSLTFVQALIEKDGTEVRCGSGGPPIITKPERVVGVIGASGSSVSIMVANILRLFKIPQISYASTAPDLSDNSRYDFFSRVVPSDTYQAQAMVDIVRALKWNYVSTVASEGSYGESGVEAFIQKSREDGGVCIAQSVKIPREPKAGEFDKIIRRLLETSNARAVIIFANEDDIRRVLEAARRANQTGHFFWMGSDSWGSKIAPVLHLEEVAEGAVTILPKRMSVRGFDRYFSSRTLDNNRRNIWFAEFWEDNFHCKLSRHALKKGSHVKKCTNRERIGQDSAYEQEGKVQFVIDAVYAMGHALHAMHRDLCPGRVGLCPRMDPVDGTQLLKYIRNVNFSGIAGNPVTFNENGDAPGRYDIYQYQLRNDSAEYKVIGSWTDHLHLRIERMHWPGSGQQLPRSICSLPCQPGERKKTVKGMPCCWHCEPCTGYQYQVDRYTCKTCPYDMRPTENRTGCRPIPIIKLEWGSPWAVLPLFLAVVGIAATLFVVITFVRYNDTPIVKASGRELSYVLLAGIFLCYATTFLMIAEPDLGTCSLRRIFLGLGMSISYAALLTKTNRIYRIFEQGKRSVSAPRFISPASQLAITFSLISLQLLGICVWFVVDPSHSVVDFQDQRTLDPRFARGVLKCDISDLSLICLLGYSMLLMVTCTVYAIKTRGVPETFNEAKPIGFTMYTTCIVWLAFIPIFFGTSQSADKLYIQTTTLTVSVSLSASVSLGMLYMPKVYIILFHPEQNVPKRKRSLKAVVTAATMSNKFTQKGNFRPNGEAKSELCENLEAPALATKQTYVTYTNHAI
Description: (§1) The EC50's are compared to those of L-AP4 (L-2-amino-4-phosphonobutyric acid) used as a reference.
(§2) Metabotropic glutamate receptors were transiently transfected in HEK293 cells by electroporation as described elsewhere (Brabet I. et al., 1998) and plated in 96-well microplates. The high affinity glutamate transporter EAAC1 was co-transfected with the receptor in order to avoid any influence of glutamate released by the cells in the assay medium. In the experiments carried out by the inventors, Group-III mGluRs were co-transfected with a chimeric G-protein which couples the activation of the receptor to the phospholipase-C (PLC) pathway. Thus receptor activation induces production of inositol phosphate (IP) which in turn induces intracellular Ca^2+ release. Receptor activity was then determined by measurement of the IP production or Ca release as already described (Goudet C. et al., PNAS 2004). For intracellular calcium measurements, cells expressing mGluRs were loaded with Ca2+-sensitive fluorescent dye Fluo-4 AM (Invitrogen, Cergy-Pontoise, France) dissolved in Hanks' balanced salt solution (HBSS, Invitrogen, Cergy-Pontoise, France) containing 2.5 mM Probenicid (Sigma-Aldrich Chemie, Saint-Quentin Fallavier, France) for 1 h at 37° C., then washed and incubated with HBSS containing probenecid. A drug plate was prepared with the various concentrations of agonist to be tested and drug solution was added in each well after 20 s of recording. Fluorescence signals (excitation 485 nm, emission 525 nm) were measured by using the fluorescence microplate reader Flexstation III (Molecular Devices, Saint-Grégoire, France) at sampling intervals of 1.5 s for 60 s. All points are realized in triplicate.
(§3) The dose-response curves were fitted using the GraphPad Prism program and the following equation: y=[(ymax−ymin)/(1+(x/EC50)n)]+ymin where EC50 is the concentration of the compound necessary to obtain the half maximal effect and n is the Hill coefficient.

mGlu6 = mGlu6 (Homo sapiens (Human), UniProt O15303); assay: Agonist activity on mGlu6 in transfected HEK293 cells, intracellular calcium release (Fluo4-AM); type: cell-based; details: transfected cells, calcium release; read-out: mGlu6 EC50 μM (n)
Sequence of mGlu6 (O15303 25-877): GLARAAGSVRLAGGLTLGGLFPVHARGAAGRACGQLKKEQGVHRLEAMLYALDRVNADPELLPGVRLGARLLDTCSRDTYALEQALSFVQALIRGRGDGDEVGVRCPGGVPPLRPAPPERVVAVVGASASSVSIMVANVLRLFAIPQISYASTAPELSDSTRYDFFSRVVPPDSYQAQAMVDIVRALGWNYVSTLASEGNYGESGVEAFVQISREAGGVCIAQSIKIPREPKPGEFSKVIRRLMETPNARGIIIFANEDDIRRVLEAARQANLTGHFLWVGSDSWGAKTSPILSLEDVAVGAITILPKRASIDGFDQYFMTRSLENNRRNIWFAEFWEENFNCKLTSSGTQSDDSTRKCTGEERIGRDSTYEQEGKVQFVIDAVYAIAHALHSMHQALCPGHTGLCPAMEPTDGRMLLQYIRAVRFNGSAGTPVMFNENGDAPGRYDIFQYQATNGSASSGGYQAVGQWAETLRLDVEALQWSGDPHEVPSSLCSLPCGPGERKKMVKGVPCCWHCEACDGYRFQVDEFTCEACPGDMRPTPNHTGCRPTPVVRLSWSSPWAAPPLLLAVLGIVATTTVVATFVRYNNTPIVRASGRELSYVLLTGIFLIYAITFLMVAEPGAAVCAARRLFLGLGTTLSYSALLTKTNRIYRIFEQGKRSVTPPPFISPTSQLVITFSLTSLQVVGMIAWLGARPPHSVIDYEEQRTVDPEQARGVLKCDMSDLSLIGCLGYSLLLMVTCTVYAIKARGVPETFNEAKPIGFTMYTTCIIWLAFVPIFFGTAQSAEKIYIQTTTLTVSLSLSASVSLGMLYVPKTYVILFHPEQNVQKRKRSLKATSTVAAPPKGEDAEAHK
Description: as §1, §2, §3

mGlu8 = mGlu8 (Homo sapiens (Human), UniProt O00222); assay: Agonist activity on mGlu8 in transfected HEK293 cells, intracellular calcium release (Fluo4-AM); type: cell-based
Sequence of mGlu8 (O00222 34-908): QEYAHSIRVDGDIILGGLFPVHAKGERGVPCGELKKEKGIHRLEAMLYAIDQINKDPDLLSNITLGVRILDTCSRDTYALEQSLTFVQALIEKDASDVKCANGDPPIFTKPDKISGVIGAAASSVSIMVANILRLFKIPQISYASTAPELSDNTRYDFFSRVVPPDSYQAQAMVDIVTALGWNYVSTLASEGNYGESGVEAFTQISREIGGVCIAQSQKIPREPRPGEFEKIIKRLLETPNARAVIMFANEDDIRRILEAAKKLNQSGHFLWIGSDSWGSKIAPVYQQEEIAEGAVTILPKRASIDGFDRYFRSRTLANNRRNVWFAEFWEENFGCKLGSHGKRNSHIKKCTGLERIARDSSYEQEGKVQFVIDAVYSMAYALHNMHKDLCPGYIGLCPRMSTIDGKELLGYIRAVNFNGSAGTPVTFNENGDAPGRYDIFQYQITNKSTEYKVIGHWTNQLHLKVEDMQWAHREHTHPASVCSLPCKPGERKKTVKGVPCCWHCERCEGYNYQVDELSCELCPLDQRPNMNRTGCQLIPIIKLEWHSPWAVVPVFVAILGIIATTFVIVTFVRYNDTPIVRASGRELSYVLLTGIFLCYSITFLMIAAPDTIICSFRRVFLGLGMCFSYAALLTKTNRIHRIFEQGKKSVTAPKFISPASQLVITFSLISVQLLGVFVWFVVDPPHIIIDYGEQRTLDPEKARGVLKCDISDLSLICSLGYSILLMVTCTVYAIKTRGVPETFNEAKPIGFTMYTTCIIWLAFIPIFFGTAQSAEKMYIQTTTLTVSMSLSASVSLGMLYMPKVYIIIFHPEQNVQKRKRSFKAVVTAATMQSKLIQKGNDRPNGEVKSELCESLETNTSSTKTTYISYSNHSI
Description: as §1, §2, §3

mGlu7 [2] = assay: Agonist activity on mGlu7 in transfected HEK293 cells, intracellular calcium release (Fluo4-AM); type: cell-based; details: ratio of mGlu7 EC50 to mGlu4 EC50
Description: as §1, §2, §3

mGlu7 [3] = target: mGlu7 (Homo sapiens (Human), UniProt Q14831); assay: as above; type: cell-based; details: transfected cells, calcium release; read-out: mGlu7 EC50 μM (n)
Sequence of mGlu7 (Homo sapiens (Human), UniProt Q14831) (Q14831 35-915): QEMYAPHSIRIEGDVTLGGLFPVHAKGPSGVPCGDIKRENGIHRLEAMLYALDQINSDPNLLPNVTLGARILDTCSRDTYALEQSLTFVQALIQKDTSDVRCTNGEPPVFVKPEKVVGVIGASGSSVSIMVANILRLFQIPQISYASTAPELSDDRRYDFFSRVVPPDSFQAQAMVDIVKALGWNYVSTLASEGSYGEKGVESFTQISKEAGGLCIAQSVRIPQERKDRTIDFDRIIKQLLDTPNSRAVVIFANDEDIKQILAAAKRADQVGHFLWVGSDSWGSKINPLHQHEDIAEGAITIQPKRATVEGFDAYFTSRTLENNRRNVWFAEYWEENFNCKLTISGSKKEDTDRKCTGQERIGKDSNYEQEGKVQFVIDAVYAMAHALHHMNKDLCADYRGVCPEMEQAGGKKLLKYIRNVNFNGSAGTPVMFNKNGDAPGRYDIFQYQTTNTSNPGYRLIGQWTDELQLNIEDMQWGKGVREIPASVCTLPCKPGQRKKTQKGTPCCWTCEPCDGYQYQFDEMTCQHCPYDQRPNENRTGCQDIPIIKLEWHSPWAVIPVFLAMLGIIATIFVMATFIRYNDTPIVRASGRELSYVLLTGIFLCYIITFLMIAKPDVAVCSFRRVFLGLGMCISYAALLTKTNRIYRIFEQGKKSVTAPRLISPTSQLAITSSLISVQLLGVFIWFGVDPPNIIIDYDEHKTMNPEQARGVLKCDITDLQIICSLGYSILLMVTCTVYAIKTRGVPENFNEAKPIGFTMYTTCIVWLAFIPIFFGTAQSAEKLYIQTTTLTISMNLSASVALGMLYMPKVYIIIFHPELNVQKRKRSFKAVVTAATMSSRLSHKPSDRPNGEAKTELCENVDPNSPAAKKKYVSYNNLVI
Description: as §1, §2, §3

- EC50 (mGlu4): 0.11 ± 0.02 µM
- EC50 (mGlu6): 4.2 ± 0.6 µM
- mGlu8/4 EC50 ratio (mGlu8; ratio of mGlu8 EC50 to mGlu4 EC50): 256
- EC50 (mGlu8; transfected cells, calcium release, read-out: mGlu8 EC50 μM (n)): 29.2 ± 4.2 µM
- mGlu7/4 EC50 ratio (mGlu7 [2]): 100
- EC50 (mGlu7 [3]): 11.6 ± 1.9 µM
Compound: N[C@@H](CCP(=O)(O)C(O)c1ccc(OCC(=O)O)cc1)C(=O)O (stereo partly drawn) [Derivative 2, [((3S)-3-Amino-3-carboxy)propyl][(4-(carboxymethoxy)phenyl)hydroxymethyl]phosphinic Acid]
- antihyperalgesic effect on vocalization threshold to paw pressure ([1]; carrageenan inflammatory pain, rats, 0.5-10 μg/rat i.t., FIG. 2): abolishes the excess of mechanical pain
- antihyperalgesic effect compared to morphine ([1]; inflammatory pain, morphine 10 μg/rat i.t. as control): close to the one of morphine
- perception of mechanical acute pain (vocalization threshold to paw pressure) (healthy rats): does not modify the perception of the mechanical acute pain
